Reference: patent publication US12503719B2, “Metabolomic characterization of microorganisms” (priority 2019, dated 2025)
Converted amounts (≈) assume the structure as drawn.

Tests used:
C. albicans = settings: published CLSI MIC used as test concentration; antifungals tested for C. albicans; cited from earlier work
[1] = published CLSI MIC used as test concentration; species not given; cited from earlier work
E. coli [2] = experiment: MAST: succinate production after 4 h incubation with antimicrobial; format: cell-based, Escherichia coli; settings: AMP and SXT resistant E. coli strain, antibiotics at MIC
Description: All chemicals were obtained from Sigma-Aldrich (St. Louis, Mo. USA), VWR (Radnor, Pa. USA), or Fisher Scientific (Waltham, Mass. USA) unless otherwise specified. Clinical isolates used in this study were obtained from bloodstream infected patients. All strains were first identified and tested for antibiotic susceptibility using a clinical laboratory testing pipeline (plating on selective medium for single colony isolation, Gram staining, MALDI-TOF-MS species identification, and sub-culturing for purity and inoculation onto VITEK 2 (bioMerieux) antimicrobial susceptibility panels), and subsequently frozen as cryostocks. With the exception of S. pneumoniae, all strains were routinely grown in Mueller Hinton medium (BD Difco, Mississauga, ON, Canada). […] Supernatant was then diluted 1:10 with 50% LC-MS grade methanol and analyzed using UHPLC-MS. […]
To assess MAST as a potential clinical tool, three patient isolates for each target pathogen (2 each for S. aureus and P. aeruginosa) were analyzed. […] Both bactericidal (penicillins, cephalosporins, carbapenems, glycopeptides, aminoglycosides and fluoroquinolones) and bacteriostatic (macrolides, tetracyclines, and trimethoprim-sulfamethoxazole) antibiotic classes were evaluated.

K. pneumoniae = settings: published CLSI MIC used as test concentration; cited from earlier work
S. pneumoniae = settings: published CLSI MIC used as test concentration; cited from earlier work
E. coli [3] = settings: published CLSI MIC used as test concentration; cited from earlier work
S. aureus = settings: published CLSI MIC used as test concentration; cited from earlier work
KP = experiment: MAST: hypoxanthine production after 4 h incubation with antimicrobial; format: cell-based, Klebsiella pneumoniae
Description: All chemicals were obtained from Sigma-Aldrich (St. Louis, Mo. USA), VWR (Radnor, Pa. USA), or Fisher Scientific (Waltham, Mass. USA) unless otherwise specified. Clinical isolates used in this study were obtained from bloodstream infected patients. All strains were first identified and tested for antibiotic susceptibility using a clinical laboratory testing pipeline (plating on selective medium for single colony isolation, Gram staining, MALDI-TOF-MS species identification, and sub-culturing for purity and inoculation onto VITEK 2 (bioMerieux) antimicrobial susceptibility panels), and subsequently frozen as cryostocks. With the exception of S. pneumoniae, all strains were routinely grown in Mueller Hinton medium (BD Difco, Mississauga, ON, Canada). S. pneumoniae isolates were first revived on trypticase soy agar plates containing sheep blood (BD BBL, Mississauga, ON, Canada) and then sub-cultured into Mueller Hinton medium supplemented with catalase (1000 U/mL). For biomarker discovery and validation of biomarkers using MPAs, exponential phase cultures were used to seed 96 well culture plates (Corning, N.Y., N.Y. USA) containing Mueller Hinton medium with 10% donated human blood to a 0.5 McFarland (OD600˜0.07 or ˜1.5×10^8 CFU/mL). […] Supernatant was then diluted 1:10 with 50% LC-MS grade methanol and analyzed using UHPLC-MS. […]

P. aeruginosa = settings: published CLSI MIC used as test concentration; cited from earlier work
E. faecalis = settings: published CLSI MIC used as test concentration; cited from earlier work

Nc1nc(=O)[nH]cc1F [5FC, 5-flucytosine]
minimum inhibitory concentrations (C. albicans): 0.5 µg/mL (≈ 3.87 µM)

C[C@@H]1[C@H](O)[C@@H](C)/C=C/C=C/C=C/C=C/C=C/C=C/C=C/[C@H](O[C@@H]2O[C@H](C)[C@@H](O)[C@H](N)[C@@H]2O)C[C@@H]2O[C@](O)(C[C@@H](O)C[C@@H](O)[C@H](O)CC[C@@H](O)C[C@@H](O)CC(=O)O[C@H]1C)C[C@H](O)[C@H]2C(=O)O [AMB, amphotericin B]
minimum inhibitory concentrations (C. albicans): 2 µg/mL (≈ 2.16 µM)

CC1(C)S[C@@H]2[C@H](NC(=O)[C@H](N)c3ccccc3)C(=O)N2[C@H]1C(=O)O [AMP, ampicillin]
minimum inhibitory concentrations [1]: 8 µg/mL (≈ 22.9 µM) | succinate production in presence of antibiotic versus absence of antibiotics (E. coli [2]): comparable

CC(C)(O/N=C(\C(=O)N[C@@H]1C(=O)N2C(C(=O)[O-])=C(C[n+]3ccccc3)CS[C@H]12)c1csc(N)n1)C(=O)O [CAZ, ceftazidime]
minimum inhibitory concentrations [1]: 8 µg/mL (≈ 14.6 µM)

Cc1nnc(SCC2=C(C(=O)O)N3C(=O)[C@@H](NC(=O)Cn4cnnn4)[C@H]3SC2)s1 [CFX, cefazolin]
minimum inhibitory concentrations [1]: 4 µg/mL (≈ 8.8 µM)

CO/N=C(\C(=O)N[C@@H]1C(=O)N2C(C(=O)O)=C(CSc3nc(=O)c(=O)[nH]n3C)CS[C@H]12)c1csc(N)n1 [CRO, Ceftriaxone]
minimum inhibitory concentrations (K. pneumoniae): 1 µg/mL (≈ 1.8 µM) | minimum inhibitory concentrations (S. pneumoniae): 0.5 µg/mL (≈ 0.902 µM) | minimum inhibitory concentrations (E. coli [3]): 1 µg/mL (≈ 1.8 µM)

CC[C@H]1OC(=O)[C@H](C)[C@@H](O[C@H]2C[C@@](C)(OC)[C@@H](O)[C@H](C)O2)[C@H](C)[C@@H](O[C@@H]2O[C@H](C)C[C@H](N(C)C)[C@H]2O)[C@](C)(O)C[C@@H](C)C(=O)[C@H](C)[C@@H](O)[C@]1(C)O [ERY, erythromycin]
minimum inhibitory concentrations (S. aureus): 0.5 µg/mL (≈ 0.681 µM) | minimum inhibitory concentrations (S. pneumoniae): 0.25 µg/mL (≈ 0.341 µM)

OC(Cn1cncn1)(Cn1cncn1)c1ccc(F)cc1F [FLC, fluconozole]
minimum inhibitory concentrations (C. albicans): 2 µg/mL (≈ 6.53 µM)

C[C@@H](O)[C@H]1C(=O)N2C(C(=O)O)=C(S[C@@H]3CN[C@H](C(=O)N(C)C)C3)[C@H](C)[C@H]12 [MEM, meropenem]
minimum inhibitory concentrations (K. pneumoniae): 1 µg/mL (≈ 2.61 µM) | minimum inhibitory concentrations (S. pneumoniae): 0.25 µg/mL (≈ 0.652 µM) | hypoxanthine production (KP; drug sensitive strains, range of meropenem concentrations): incremental reduction in hypoxanthine production proportional to meropenem concentrations | hypoxanthine production (KP; resistant strains, clinically-relevant antibiotic concentrations): remain unaffected | minimum inhibitory concentrations (E. coli [3]): 1 µg/mL (≈ 2.61 µM) | minimum inhibitory concentrations (P. aeruginosa): 2 µg/mL (≈ 5.22 µM)

Cc1onc(-c2ccccc2)c1C(=O)N[C@@H]1C(=O)N2[C@@H]1SC(C)(C)[C@@H]2C(=O)O [OXA, oxacillin]
minimum inhibitory concentrations [1]: 2 µg/mL (≈ 4.98 µM)

CN[C@H](CC(C)C)C(=O)N[C@H]1C(=O)N[C@@H](CC(N)=O)C(=O)N[C@H]2C(=O)N[C@H]3C(=O)N[C@H](C(=O)N[C@H](C(=O)O)c4cc(O)cc(O)c4-c4cc3ccc4O)[C@H](O)c3ccc(c(Cl)c3)Oc3cc2cc(c3O[C@@H]2O[C@H](CO)[C@@H](O)[C@H](O)[C@H]2O[C@H]2C[C@](C)(N)[C@H](O)[C@H](C)O2)Oc2ccc(cc2Cl)[C@H]1O [VAN, vancomycin]
minimum inhibitory concentrations (S. aureus): 2 µg/mL (≈ 1.38 µM) | minimum inhibitory concentrations (S. pneumoniae): 1 µg/mL (≈ 0.69 µM) | minimum inhibitory concentrations (E. faecalis): 4 µg/mL (≈ 2.76 µM)

gentamicin
minimum inhibitory concentrations [1]: 4 µg/mL | minimum inhibitory concentrations (E. faecalis): 500 µg/mL

penicillin
minimum inhibitory concentrations [1]: 0.06 µg/mL
